These are literature values, as cited in US8629099B2, “Ophthalmic compositions comprising a dipeptide” (Bausch & Lomb Incorporated, priority 2008, dated 2014).

The conditions of this series: lower pKa given in text.

Take `NCC(=O)O` [glycine]: the “pKa values (first value)” value is on record as 2.4.
